In brackets after ≈: the same amount, converted by molar mass.
How the values were obtained:
Type in all cases: functional
[1] = tested on: Escherichia coli; test: Antimicrobial activity against Escherichia coli UNSWO24101 after 48 hrs
[2] = tested on: Micrococcus luteus; test: Antimicrobial activity against Micrococcus luteus ATCC 9341 after 48 hrs; conditions: ATCC 9341, 48 h
[3] = tested on: Staphylococcus aureus; test: Antimicrobial activity against Staphylococcus aureus ATCC 6538 after 48 hrs; conditions: ATCC 6538, 48 h
[4] = tested on: Saccharomyces cerevisiae; test: Antimicrobial activity against Saccharomyces cerevisiae UNSA Y-40 after 48 hrs

C=CCc1ccc(O)c(OC)c1 [EUGENOL]
MIC [1]: 600 µg/mL (≈ 3.65 mM) | MIC [2]: 600 µg/mL (≈ 3.65 mM) | MIC [3]: 700 µg/mL (≈ 4.26 mM) | MIC [4]: 400 µg/mL (≈ 2.44 mM)

Source: ChEMBL document CHEMBL1151363, “Chemical composition and biological activity of the Tanzanian plant Ocimum suave” (1981)
